The text below walks through data of patent US8501955B2, “Acetamide derivatives as glucokinase activators, their process and medicinal application” (Advinus Therapeutics Private Limited, priority 2007, dated 2013).

The term EC50 denotes the concentration that produces a half-maximal response. A word on the fold induction: it is the ratio of treated to control signal. Low readings indicate a weak induction, high ones a strong induction. As a reminder, the Emax is the maximal effect, on the per cent scale that the assay sets.

Test [1] concerns the target T1, purified human recombinant GK (Homo sapiens, UniProt P35557).
T1 sequence (P35557 1-465): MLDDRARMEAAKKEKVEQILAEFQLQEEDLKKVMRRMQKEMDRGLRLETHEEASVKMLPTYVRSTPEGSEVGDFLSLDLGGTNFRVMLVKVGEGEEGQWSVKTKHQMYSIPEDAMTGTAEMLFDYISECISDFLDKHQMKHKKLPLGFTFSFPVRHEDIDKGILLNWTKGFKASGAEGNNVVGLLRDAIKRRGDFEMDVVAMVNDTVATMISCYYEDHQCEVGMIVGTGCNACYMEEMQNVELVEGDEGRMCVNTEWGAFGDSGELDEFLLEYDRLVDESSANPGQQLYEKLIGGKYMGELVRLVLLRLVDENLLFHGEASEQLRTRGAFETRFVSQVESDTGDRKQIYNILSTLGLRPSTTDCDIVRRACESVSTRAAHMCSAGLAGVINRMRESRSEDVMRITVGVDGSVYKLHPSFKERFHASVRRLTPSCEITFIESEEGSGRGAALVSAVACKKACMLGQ
As to the kind of experiment: Glucokinase activity assay (coupled enzymatic GK/G6PD assay, NADH absorbance at 340 nm). It counts as biochemical. To be noted: for EC50: EC50 of % change in S0.5 of glucokinase for glucose, sigmoidal fit, read-out: EC50 (with respect to % ΔS0.5); for % Emax (with respect to % ΔS0.5) / Emax: Emax of % change in S0.5, vehicle S0.5 = 0%, 0 mM glucose = 100%; for Emax: read-out: % Emax (with respect to % ΔS0.5). An excerpt:
The glucokinase (GK) assay is a coupled enzymatic assay. GK catalyzes the first step of glycolysis, the conversion of glucose to glucose-6-phosphate (G6P) in the presence of ATP. G6P in turn is converted by glucose-6-phosphate dehydrogenase (G6PD) to 6-phosphogluconate, a process that requires NAD, resulting in NADH formation. Since the GK-catalyzed step is the rate-limiting step of this coupled enzymatic process, the rate of accumulation of 6-phosphogluconate and NADH is directly proportional to the rate of glucose phosphorylation by GK. The rate of the GK-catalyzed reaction can therefore be measured by monitoring the increase in NADH absorbance at 340 nm.
The assay is carried out according to the protocol outlined in Hariharan et al (1997), Diabetes 46: 11-16. Briefly, the test compounds are incubated in a reaction mix containing 25 mM HEPES (pH 7.2), 10 mM MgCl2, 100 mM KCl, 5 mM ATP, 2 mM DTT, 0.5 mM NAD, 1 U/ml Leuconostoc mesenteroides G6PD, 0.3 U/ml of purified human recombinant GK, and different concentrations of glucose. Enzymatic activity is calculated from the initial reaction velocity, measured from the change in NADH absorbance as a function of time.
Compounds described in formula (I), in concentration ranges from 1.0 nM to […] are tested in the purified human recombinant glucokinase assay described above.
A compound is considered to be a glucokinase activator if it, in its testable range of concentrations, yields a higher rate of glucose phosphorylation than in its absence at a particular glucose concentration, for example at 5 mM glucose.
Compounds of general formula (I) are tested in the in vitro GK enzymatic assay to monitor dose-dependent effect on glucokinase activation (in kinetic mode), as described above, at various glucose concentrations. The S0.5 of glucokinase for glucose at different concentration of each compound of interest is calculated from the following modified version of the Michaelis-Menten equation, V=Vmax[S]^n/(S0.5^n+[S]^n), where [S] is the glucose concentration and n is the Hill coefficient (taken as 1.7 to account for the sigmoidal kinetics of glucokinase with respect to glucose). The S0.5 is plotted against the log of the compound concentration. The change in the S0.5 of glucokinase (ΔS0.5) for glucose is calculated by subtracting the S0.5 at each concentration of the compound from the S0.5 in the vehicle control. The ΔS0.5 is then normalized to a percent scale, where the S0.5 in the vehicle control is set to 0% and 0 mM glucose is set to 100%. The % ΔS0.5 is then plotted against the log of the compound concentration. The EC50 and Emax of % change in S0.5 is obtained from the sigmoidal fit of the data. Detailed protocol has been described in our copending application no. WO 2008/104994 which is incorporated herein by reference. Characterization data of some representative glucokinase activators of the present disclosure, which are illustrative but not limiting, are given in table 1 below.

Another test concerns primary rat hepatocytes. Description: Measurement of glycogen synthesis in primary rat hepatocytes. It counts as cell-based. To be noted: 10 mM glucose, fold increase over DMSO control; for Fold increase in glycogen synthesis at 10 μM compound: 3 hours; for fold induction at 10 µM: Rattus norvegicus, Hepatocyte, 3 h, 10 μM compound. Here is the method:
Primary hepatocytes are collected from male Wistar rats, and tested for viability by trypan blue exclusion. Primary hepatocytes cultures with viability greater than 95% are selected for the glycogen synthesis assay. The cells are seeded in a 48-well plate at a density of 200,000 cells/well in 250 μl Minimal Essential Medium (MEM) containing 10% foetal calf serum (FCS) and 1.7 μM insulin, and incubated for 4 hours at 37° C. to allow attachment. The medium is replaced with fresh MEM containing 10% FCS, 1.7 μM insulin and 10 nM dexamethasone, and the cells are incubated for 16 hours at 37° C. The medium is then replaced with fresh MEM (serum-free) containing 2 μCi/ml of D-[U^14C]-Glucose along with 10 μM of the compound in a final DMSO concentration of 0.1%. The final glucose concentration is brought to 10 mM by the addition of D-Glucose (MEM already contains 5 mM glucose). The cells are incubated for 3 hours at 37° C. The cells are washed twice with 150 mM NaCl, lysed with 0.1 N NaOH, and the lysate precipitated with 8% w/v trichloroacetic acid (TCA) and 1 mg/well unlabeled glycogen as carrier. Cell debris is pelleted by centrifugation, the supernatant is removed, and the glycogen is precipitated with 63% ethanol. After another round of centrifugation, the supernatant is removed, and the pellet containing the precipitated glycogen is dried overnight. De novo synthesized glycogen is estimated in a scintillation counter (MicroBeta Trilux, Perkin Elmer), and expressed as fold increase over DMSO control.
The protocol for the glycogen assay is based on the method described in “Biochem J. 1990 Feb. 15; 266(1): 91-102” with a few minor modifications. The protocol for isolation of primary rat hepatocytes is based on the method described in “Methods in Enzymology, Vol. III. pp 34-50. Ed. by S. P. Colowick and N. O. Kaplan. New York, Academic Press, 1957” with a few minor modifications.
Compounds described in formula (I), in concentration ranges from 1.0 nM to 500 μM, are tested in glycogen synthesis assay described above.

Some results are limits rather than exact numbers.

Take `O=C(O)Cc1nc(NC(=O)C(Oc2ccc(F)cc2F)c2ccc(S(=O)(=O)C3CC3)cc2)sc1Cl` (single isomer, unassigned; (+)) [Example F1, (+)-{5-Chloro-2-[2-(4-cyclopropanesulfonyl-phenyl)-2-(2,4-difluorophenoxy)acetyl-amino]thiazol-4-yl}-acetic acid]: in test [1], the half-maximal effective concentration (EC50) is 1270 nM and the “% Emax (with respect to % ΔS0.5)” value was 90%. Besides, the “Fold increase in glycogen synthesis at 10 μM compound” value (“Fold increase in glycogen synthesis” for short) in the test on primary rat hepatocytes is recorded as 4.5 fold.

Take `O=C(O)Cc1nc(NC(=O)C(Oc2ccc(F)cc2F)c2ccc(S(=O)(=O)C3CCCC3)cc2)sc1Cl` (single isomer, unassigned; (+)) [Example F2, (+)-{5-Chloro-2-[2-(4-cyclopentanesulfonyl-phenyl)-2-(2,4-difluorophenoxy)acety-lamino]thiazol-4-yl}acetic acid]: in test [1], the EC50 amounted to 670 nM and the “% Emax (with respect to % ΔS0.5)” value worked out at 95%. Further, in the test with primary rat hepatocytes, the “Fold increase in glycogen synthesis” value came to 7.2 fold. For the compound `O=C(O)Cc1csc(NC(=O)C(Oc2ccc(F)cc2F)c2ccc(S(=O)(=O)C3CC3)cc2)n1` (single isomer, unassigned; (+)) [Example F3, (+)-{2-[2-(4-Cyclopropanesulfonylphenyl)-2-(2,4-difluorophenoxy)acetylamino]thiazol-4-yl}acetic acid], in test [1], the EC50 is 2470 nM and the “% Emax (with respect to % ΔS0.5)” value stood at 90%. The “Fold increase in glycogen synthesis” value in the test with primary rat hepatocytes was 7.0 fold. In the test on primary rat hepatocytes, `O=C(O)c1ccc(Oc2cnc(NC(=O)C(OC3CCOCC3)c3ccc(S(=O)(=O)C4CC4)cc3)s2)cc1` (single isomer, unassigned; (+)) [Example H7A, (+) 4-{2-[2-(4-Cyclopropanesulfonyl-phenyl)-2-(tetrahydro-pyran-4-yloxy)-acetylamino]-thiazol-5-yloxy}-benzoic acid] gave a fold induction at 10 µM of 7.7. For the compound `COc1ccc2nc(NC(=O)C(OC3CCOCC3)c3ccc(S(=O)(=O)C4CC4)cc3)sc2n1` (single isomer, unassigned; (+)) [Example H12A, (+)2-(4-Cyclopropanesulfonyl-phenyl)-N-(5-methoxy-thiazolo[5,4-b]pyridin-2-yl)-2-(tetrahydro-pyran-4-yloxy)-Acetamide], the fold induction at 10 µM in the test on primary rat hepatocytes was 5. `Cc1csc(NC(=O)C(Oc2ccc(F)cc2F)c2ccc(S(=O)(=O)C3CC3)cc2)n1` (centres unmarked) [Example A15, 2-(4-Cyclopropanesulfonylphenyl)-2-(2,4-difluorophenoxy)-N-(4-methyl-thiazol-2-yl)acetamide] showed a fold induction at 10 µM in the test with primary rat hepatocytes of 3.7. `Cc1nc(NC(=O)C(Oc2ccc(F)cc2F)c2ccc(S(=O)(=O)C3CC3)cc2)sc1C(=O)O` (centres unmarked) [Example B12, 2-[2-(4-Cyclopropanesulfonylphenyl)-2-(2,4-difluorophenoxy)acetylamino]-4-methylthiazole-5-carboxylic acid]: the EC50 in test [1] is more than 10000 nM. As to `O=C(O)Cc1csc(NC(=O)C(Oc2ccc(F)cc2F)c2ccc(S(=O)(=O)C3CCCC3)cc2)n1` (centres unmarked) [Example B14, {2-[2-(4-Cyclopentanesulfonylphenyl)-2-(2,4-difluorophenoxy)-acetylamino]-thiazol-4-yl}acetic acid], in test [1], the EC50 is 1600 nM and the Emax is 90%. For the compound `O=C(O)Cc1nc(NC(=O)C(Oc2ccc(F)cc2F)c2ccc(S(=O)(=O)C3CCCCC3)cc2)sc1Cl` (centres unmarked) [Example B15, {5-Chloro-2-[2-(4-cyclohexanesulfonylphenyl)-2-(2,4-difluorophenoxy)acetylamino]-thiazol-4-yl}acetic acid], in test [1], the EC50 is 670 nM and the Emax amounted to 95%. Take `CCOc1sc(NC(=O)C(Oc2ccc(F)cc2F)c2ccc(S(=O)(=O)C3CC3)cc2)nc1CC(=O)O` (centres unmarked) [Example B22, {2-[2-(4-Cyclopropanesulfonylphenyl)-2-(2,4-difluorophenoxy)acetylamino]-5-ethoxy-thiazol-4-yl}acetic acid]: the EC50 in test [1] is more than 10000 nM. Still for that read-out and setting: next, `O=C(O)c1csc(NC(=O)C(Oc2ccc(Cl)cc2F)c2ccc(S(=O)(=O)C3CC3)cc2)n1` (centres unmarked) [Example B26, 2-[2-(4-Chloro-2-fluorophenoxy)-2-(4-cyclopropanesulfonylphenyl)acetylamino]thiazole-4-carboxylic acid]: more than 10000 nM. Take `O=C(O)c1ccc(Oc2cnc(NC(=O)C(Oc3ccc(F)cc3F)c3ccc(S(=O)(=O)N4CCCCC4)cc3)s2)cc1` (centres unmarked) [Example B50, 4-(2-{2-(2,4-Difluoro-phenoxy)-2-[4-(piperidine-1-sulfonyl)-phenyl]-acetylamino}-thiazol-5-yloxy)-benzoic acid]: in test [1], the EC50 was found to be 280 nM and the Emax was 90%. In the test with primary rat hepatocytes, `O=C(O)c1ccc(Oc2cnc(NC(=O)C(OC3CCOCC3)c3ccc(S(=O)(=O)C4CC4)cc3)s2)c(F)c1` (centres unmarked) [Example B94, 4-{2-[2-(4-Cyclopropanesulfonyl-phenyl)-2-(tetrahydro-pyran-4-yloxy)-acetylamino]-thiazol-5-yloxy}-3-fluoro-benzoic acid] came in with a fold induction at 10 µM of 8.7. For `O=C(O)Cc1ccc(Oc2cnc(NC(=O)C(OC3CCOCC3)c3ccc(S(=O)(=O)C4CC4)cc3)s2)cc1` (centres unmarked) [Example B100, (4-{2-[2-(4-Cyclopropanesulfonyl-phenyl)-2-(tetrahydro-pyran-4-yloxy)-acetylamino]-thiazol-5-yloxy}-phenyl)-acetic acid], in test [1], the EC50 is 220 nM and the Emax was 91%.

In the case of `NC(=O)c1cccc(Oc2cnc(NC(=O)C(Oc3ccc(F)cc3F)c3ccc(S(=O)(=O)C4CC4)cc3)s2)c1` (centres unmarked) [Example G3, 3-{2-[2-(4-Cyclopropanesulfonyl-phenyl)-2-(2,4-difluoro-phenoxy)-acetylamino]-thiazol-5-yloxy}-benzamide], in test [1], the EC50 was 200 nM and the Emax came out at 90%.
